In patent US20180015100A1, “COMBINATION PRODUCTS FOR THE TREATMENT OF BACTERIAL INFECTIONS AND METHODS OF PRODUCING OR DOSING OF SAME” (priority 2016, published 2018):
Converted amounts (≈) assume the structure as drawn. Read-outs that look alike come from different tables or passages of the source.

What was measured:
[1] = test system: Enterobacter cloacae isolates; experiment: MIC of cephalosporins alone or with clavulanate/tazobactam; assay type: cell-based; conditions: clavulanate 2:1, tazobactam 4 μg/mL
[2] = test system: ESBL-producing Enterobacteriaceae isolates (panel of nineteen); experiment: MIC of cephalosporins alone or with clavulanate/tazobactam, whole panel; assay type: cell-based; conditions: cephalosporin alone
[3] = test system: ESBL Klebsiella pneumoniae isolates; experiment: MIC against isolates analyzed in time-kill experiments; assay type: cell-based
[4] = test system: E. coli clinical isolate expressing the ESBL CTX-M-15; assay type: in vivo, mouse; conditions: 0.5-4 mg/kg q4 hr s.c. for 3 days
[5] = test system: ESBL Escherichia coli isolates; experiment: Killing kinetics (time-kill); assay type: cell-based; conditions: 4X MIC of CTB+CLA
[6] = test system: 385 Escherichia coli and 126 Klebsiella pneumoniae isolates; experiment: MIC, MIC50 and MIC90 by reference broth microdilution against 511 UTI/bloodstream isolates (USA and Europe 2014-2015); assay type: cell-based
[7] = 365 isolates producing CTX-M enzymes

Nc1nc(/C(=C/CC(=O)O)C(=O)N[C@@H]2C(=O)N3C(C(=O)O)=CCS[C@H]23)cs1 [Ceftibuten, ceftibuten]
MIC ([1]; AECL1065 (CTX-M-15)): > 64 µg/mL
MIC ([1]; AECL1067 (CTX-M-3)): 32 µg/mL
ESBL-producing isolates with MIC<8 μg/mL ([2]; 19 isolates): 10 of 19
MICs relative to CLSI/EUCAST MIC breakpoints for the approved dosing regimens ([2]; ESBL-producing Enterobacteriaceae): above the CLSI/EUCAST
MIC ([3]; AKP1162 (SHV-12, CTX-M-15)): 32 µg/mL (≈ 78 µM)
MIC ([3]; AKPN1159 (SHV-12)): 4 µg/mL (≈ 9.75 µM)
bacterial titers, bladder [4]: 4.06-4.58 log10 CFU
bacterial titers, kidneys [4]: 4.26-5.83 log10 CFU
bacterial titers, urine [4]: 3.62-4.81 log10 CFU
reduction of bacterial titers relative to untreated control, bladder [4]: 2.8-3.35 log10 CFU
reduction of bacterial titers relative to untreated control, kidneys [4]: 0.6-2.17 log10 CFU
reduction of bacterial titers relative to untreated control, urine [4]: 2.46-3.65 log10 CFU
Change in Log10 CFU/mL From Inoculum (0 hr) ([5]; AECO1156, 2 h): 0.33 Log10 CFU/mL
Change in Log10 CFU/mL From Inoculum (0 hr) ([5]; AECO1156, 4 h): 2.35 Log10 CFU/mL
Change in Log10 CFU/mL From Inoculum (0 hr) ([5]; AECO1156, 6 h): 3.28 Log10 CFU/mL
Change in Log10 CFU/mL From Inoculum (0 hr) ([5]; AECO1156, 24 h): 3.98 Log10 CFU/mL
Change in Log10 CFU/mL From Inoculum (0 hr) ([5]; AECO1157, 2 h): 1.02 Log10 CFU/mL
Change in Log10 CFU/mL From Inoculum (0 hr) ([5]; AECO1157, 4 h): 2.88 Log10 CFU/mL
Change in Log10 CFU/mL From Inoculum (0 hr) ([5]; AECO1157, 6 h): 3.29 Log10 CFU/mL
Change in Log10 CFU/mL From Inoculum (0 hr) ([5]; AECO1157, 24 h): 3.63 Log10 CFU/mL
Change in Log10 CFU/mL From Inoculum (0 hr) ([5]; AECO1162, 2 h): −0.36 Log10 CFU/mL
Change in Log10 CFU/mL From Inoculum (0 hr) ([5]; AECO1162, 4 h): 0.17 Log10 CFU/mL
Change in Log10 CFU/mL From Inoculum (0 hr) ([5]; AECO1162, 6 h): 2.19 Log10 CFU/mL
Change in Log10 CFU/mL From Inoculum (0 hr) ([5]; AECO1162, 24 h): 3.46 Log10 CFU/mL
Change in Log10 CFU/mL From Inoculum (0 hr) ([5]; AECO1166, 2 h): −1.30 Log10 CFU/mL
Change in Log10 CFU/mL From Inoculum (0 hr) ([5]; AECO1166, 4 h): 0.58 Log10 CFU/mL
Change in Log10 CFU/mL From Inoculum (0 hr) ([5]; AECO1166, 6 h): 2.24 Log10 CFU/mL
Change in Log10 CFU/mL From Inoculum (0 hr) ([5]; AECO1166, 24 h): 3.71 Log10 CFU/mL
% of the isolates inhibited at ≦1 μg/mL [6, 7]: 19.7%
% of the isolates inhibited at ≦8 μg/mL [6, 7]: 64.4%
MIC50 ([6]; 365 isolates producing CTX-M enzymes (no transferrable AmpC/carbapenemase)): 8 µg/mL (≈ 19.5 µM)
MIC90 ([6]; 365 isolates producing CTX-M enzymes (no transferrable AmpC/carbapenemase), read-out: MIC90): 32 µg/mL (≈ 78 µM)
MIC90 ([6]; 379 E. coli or K. pneumoniae isolates genotyped for CTX-M, TEM, or SHV ESBLs, 2:1 ratio): ~32 µg/mL
MIC50 ([6]; 511 isolates): 8 µg/mL (≈ 19.5 µM)
MIC90 ([6]; 511 isolates): >32 µg/mL
MIC90 ([6]; 511 isolates, read-out: MIC90): > 32 µg/mL
MIC50 ([6]; All CTX-M-producing K pneumoniae (71)): 8 µg/mL (≈ 19.5 µM)
MIC90 ([6]; All CTX-M-producing K pneumoniae (71), read-out: MIC90): > 32 µg/mL
MIC50 ([6]; All CTX-M-producing isolates (365)): 8 µg/mL (≈ 19.5 µM)
MIC90 ([6]; All CTX-M-producing isolates (365), read-out: MIC90): 32 µg/mL (≈ 78 µM)
MIC50 ([6]; Enterobacteriaceae (511)): 8 µg/mL (≈ 19.5 µM)
MIC90 ([6]; Enterobacteriaceae (511), read-out: MIC90): > 32 µg/mL
MIC50 ([6]; Escherichia coli, All CTX-M-producing E. coli (294)): 8 µg/mL (≈ 19.5 µM)
MIC90 ([6]; Escherichia coli, All CTX-M-producing E. coli (294), read-out: MIC90): 32 µg/mL (≈ 78 µM)
MIC50 ([6]; Escherichia coli, E. coli (385)): 8 µg/mL (≈ 19.5 µM)
MIC90 ([6]; Escherichia coli, E. coli (385), read-out: MIC90): > 32 µg/mL
MIC50 ([6]; Isolates producing CTX-M Group 1 (276)): 8 µg/mL (≈ 19.5 µM)
MIC90 ([6]; Isolates producing CTX-M Group 1 (276), read-out: MIC90): > 32 µg/mL
MIC50 ([6]; Isolates producing CTX-M Group 9 (92)): 1 µg/mL (≈ 2.44 µM)
MIC90 ([6]; Isolates producing CTX-M Group 9 (92), read-out: MIC90): 16 µg/mL (≈ 39 µM)
MIC50 ([6]; Isolates producing SHV ESBL (18)): 1 µg/mL (≈ 2.44 µM)
MIC90 ([6]; Isolates producing SHV ESBL (18), read-out: MIC90): 16 µg/mL (≈ 39 µM)
MIC50 ([6]; Isolates producing transferable AmpC (57)): > 32 µg/mL
MIC90 ([6]; Isolates producing transferable AmpC (57), read-out: MIC90): > 32 µg/mL
MIC50 ([6]; K pneumoniae (126)): 8 µg/mL (≈ 19.5 µM)
MIC90 ([6]; K pneumoniae (126), read-out: MIC90): > 32 µg/mL
MIC50 ([6]; KPC-producers (25)): 8 µg/mL (≈ 19.5 µM)
MIC90 ([6]; KPC-producers (25), read-out: MIC90): 32 µg/mL (≈ 78 µM)
cumulative % of isolates at MIC ([6]; MIC 0.015 μg/mL, All CTX-M-producing K pneumoniae (71)): (0.0) %
cumulative % of isolates at MIC ([6]; MIC 0.015 μg/mL, All CTX-M-producing isolates (365)): (0.0) %
cumulative % of isolates at MIC ([6]; MIC 0.015 μg/mL, Isolates producing CTX-M Group 9 (92)): (0.0) %
cumulative % of isolates at MIC ([6]; MIC 0.015 μg/mL, Isolates producing SHV ESBL (18)): (0.0) %
cumulative % of isolates at MIC ([6]; MIC 0.015 μg/mL, K pneumoniae (126)): (0.0) %
cumulative % of isolates at MIC ([6]; MIC 0.03 μg/mL, All CTX-M-producing K pneumoniae (71)): (1.4) %
cumulative % of isolates at MIC ([6]; MIC 0.03 μg/mL, All CTX-M-producing isolates (365)): (0.3) %
cumulative % of isolates at MIC ([6]; MIC 0.03 μg/mL, E. coli (385)): (0.0) %
cumulative % of isolates at MIC ([6]; MIC 0.03 μg/mL, Isolates producing CTX-M Group 9 (92)): (1.1) %
cumulative % of isolates at MIC ([6]; MIC 0.03 μg/mL, Isolates producing SHV ESBL (18)): (11.1) %
cumulative % of isolates at MIC ([6]; MIC 0.03 μg/mL, K pneumoniae (126)): (4.0) %
cumulative % of isolates at MIC ([6]; MIC 0.06 μg/mL, All CTX-M-producing E. coli (294)): (0.0) %
cumulative % of isolates at MIC ([6]; MIC 0.06 μg/mL, All CTX-M-producing K pneumoniae (71)): (2.8) %
